Data as given in PubChem BioAssay (NCI).
Values joined by “and” are separate entries in the source; they are usually repeats but may differ in a detail not shown here. Equal values may be shown once.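 Interpolation was linear, between the two tested concentrations surrounding the appropriate level; five concentrations were tested over 48 hours in 96-well plates. GI50 = concentration required for 50% inhibition of growth. At the TGI there is no net growth.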

How the values were obtained:
Assay in all cases: NCI-60 cell line screen, 48 h
[1] = system: IGROV1 ovarian
[2] = system: MALME-3M melanoma
[3] = system: MOLT-4 leukemia
[4] = system: NCI-H460 lung
[5] = system: SK-MEL-28 melanoma
[6] = system: SK-OV-3 ovarian
[7] = system: UO-31 renal
[8] = system: MCF7 breast
[9] = system: SW-620 colon
[10] = system: TK-10 renal

SMILES | TGI [1] | TGI [2] | TGI [3] | TGI [4] | TGI [5] | TGI [6] | TGI [7] | TGI [8] | TGI [9] | TGI [10] | GI50 [1] | GI50 [2] | GI50 [8] | GI50 [3] | GI50 [4] | GI50 [5] | GI50 [9] | GI50 [10] | GI50 [7] | GI50 [6]
COC1CCC(OS(C)(=O)=O)CO1 (centres undefined) | > 100 µM | > 100 µM | > 100 µM | > 100 µM | > 100 µM | > 100 µM | > 100 µM |  |  |  |  |  |  |  |  |  |  |  |  | 
CCCCC1Cc2cc(OC)ccc2-c2nc3cc(OC)ccc3n21 (centres undefined) (tested in a mixture with another compound) | 23.1 µM | 34.9 µM | 37 µM | 28.7 µM |  | 26.4 µM | 24.7 µM | 33.5 µM | 27.8 µM | 35.5 µM |  |  |  |  |  |  |  |  |  | 
N=C(N)C(N=Nc1ccccc1)C(=N)N (centres undefined) | > 100 µM | > 100 µM | 99.3 µM | > 100 µM | > 100 µM | > 100 µM | > 100 µM | > 100 µM | > 100 µM | > 100 µM |  |  |  |  |  |  |  |  |  | 
O=C1OC(c2ccccc2)=N/C1=C/c1cccs1 | > 100 µM |  | 41.9 µM | > 100 µM | > 100 µM | > 100 µM |  | > 100 µM | > 100 µM | > 100 µM |  |  |  |  |  |  |  |  |  | 
O=c1c2c([nH]c3nccn13)CCCC2 | > 10 µM | > 10 µM | > 10 µM | > 10 µM | > 10 µM | > 10 µM | > 10 µM | > 10 µM | > 10 µM | > 10 µM |  |  |  |  |  |  |  |  |  | 
C[N+]1(C)C2CCC1CC(OC(=O)C(CO)c1ccccc1)C2 (centres undefined) | > 100 µM | > 100 µM | > 100 µM |  | > 100 µM | > 100 µM | > 100 µM | > 100 µM | > 100 µM | > 100 µM |  |  |  |  |  |  |  |  |  | 
CCN(CC)/C(=C\Cl)Nc1ccccn1 | > 100 µM | > 100 µM | > 100 µM | > 100 µM | > 100 µM | > 100 µM | > 100 µM |  | > 100 µM | > 100 µM |  |  |  |  |  |  |  |  |  | 
O=C1CCC(NC(=O)Cc2ccc(O)cc2)C(=O)N1 (centres undefined) | > 2500 µM |  |  | > 2500 µM | > 2500 µM | > 2500 µM | > 2500 µM |  | > 2500 µM | > 2500 µM |  |  |  |  |  |  |  |  |  | 
CN1CCN(CCCOc2ccc3ncnc(Nc4ccc(Oc5cccc(C(F)(F)F)c5)c(Cl)c4)c3c2)CC1 | 2.43 µM | 2.89 µM | 4.8 µM | 3.37 µM | 3.01 µM |  | 2.44 µM | 3.06 µM | 3.45 µM | 3.09 µM | 0.908 µM | 1.5 µM | 1.38 µM | 1.83 µM | 1.73 µM | 1.63 µM | 1.76 µM | 1.5 µM | 1.21 µM | 
O=C1CC(N2C(=O)/C(=C/C(Cl)=C\c3ccc([N+](=O)[O-])cc3)SC2=S)C(=O)N1c1ccc(Cl)cc1 (centres undefined) | 3.26 µM | 11.6 µM | 13.4 µM | > 100 µM | 4.02 µM | > 100 µM | 3.3 µM | > 100 µM | 3.89 µM | 8.63 µM | 1.03 µM | 3.09 µM | 1.38 µM | 0.596 µM | 3.3 µM | 1.71 µM | 0.508 µM | 2.79 µM | 1.07 µM | 3.56 µM
COc1nc(C#CCCCC#N)nc(OC)n1 | 41.8 µM | 28.5 µM | > 100 µM | 89.1 µM | 34.8 µM | > 100 µM | 24.9 µM | 22.1 µM | 32.5 µM | 37.7 µM |  |  |  |  |  |  |  |  |  | 
Cc1c(N)nc([C@H](CC(N)=O)NC[C@H](N)C(N)=O)nc1C(=O)N[C@H](C(=O)N[C@H](C)[C@@H](O)[C@H](C)C(=O)N[C@H](C(=O)NCCc1nc(-c2nc(C(=O)NCCC[S+](C)C)cs2)cs1)[C@@H](C)O)C(OC1OC(CO)C(O)C(O)C1OC1OC(CO)C(O)C(OC(N)=O)C1O)c1cnc[nH]1 (some centres undefined) | 22.9 µM and 29 µM and 33.6 µM | 9.03 µM and 22.9 µM and 20.7 µM | 13.1 µM and 2.22 µM and 4.41 µM | 13.1 µM and 7.63 µM and 31.6 µM | 25 µM and > 29 µM and > 100 µM |  |  | 22.5 µM and 25 µM and > 100 µM |  |  | 6.89 µM and 1.22 µM | 0.75 µM and 1.65 µM | 1.71 µM and 3.16 µM | 0.204 µM and 0.613 µM |  | > 29 µM and 28.1 µM |  | 2.36 µM and 20.4 µM |  | 
O=C(NN1C(=O)/C(=C/c2ccc(Cl)cc2)N=C1c1ccccc1)c1c(Cl)c(Cl)c(Cl)c(Cl)c1-c1nc2ccccc2[nH]1 | > 100 µM | 54.6 µM | > 100 µM | 16.2 µM | > 100 µM | > 100 µM | > 100 µM | 60.3 µM | > 100 µM |  |  |  |  |  |  |  |  |  |  | 
CN(C)CCNc1c([N+](=O)[O-])cc2c3c(cccc13)C(=O)N(CCN(C)C)C2=O | 8.17 µM | 2.28 µM | 3.09 µM | 2.26 µM | 12.9 µM | 7.51 µM | 4.2 µM | > 20.4 µM | 5.59 µM |  |  |  |  |  |  |  |  |  |  | 
CN1CCC23c4ccccc4NC1C21CCN(C)C3Nc2ccccc21 | > 375 µM | > 337 µM | > 165 µM | > 375 µM | > 375 µM | > 375 µM | > 375 µM | > 375 µM | > 375 µM |  |  |  |  |  |  |  |  |  |  | 
Cc1nc(Cl)c(C)c(Cl)n1 | 34.5 µM | > 100 µM | > 100 µM | > 100 µM | > 100 µM | > 100 µM |  | > 100 µM | > 100 µM | > 100 µM |  |  |  |  |  |  |  |  |  | 
COC1(OC)C[C@H](C)[C@@]23O[C@]24c2cc(O)c5c(c2N[C@H]3C#C/C=C\C#C[C@]14O)C(=O)c1ccccc1C5=O | 0.16 µM |  | < 0.001 µM |  | 0.234 µM and 0.087 µM | 0.0217 µM | 0.0176 µM |  | 0.167 µM and 0.215 µM | 0.401 µM |  | < 0.001 µM |  | < 0.001 µM | 0.005 µM | 0.0273 µM | 0.00373 µM |  |  | 
COc1ccc(OC)c2sc(N3C(=O)/C(=C/c4ccccc4S)N=C3c3ccccc3)nc12 | > 100 µM |  | 35 µM | > 100 µM | > 100 µM | > 100 µM | 77.2 µM | 36.5 µM | > 100 µM | > 100 µM |  |  |  |  |  |  |  |  |  | 
O=C1CC(n2cccc2)c2cc(Br)sc21 (centres undefined) | > 100 µM | > 100 µM | 87 µM | > 100 µM | > 100 µM | > 100 µM | > 100 µM | > 100 µM | > 100 µM | > 100 µM |  |  |  |  |  |  |  |  |  | 
N#CCc1[nH]nc2nc(SCc3ccccc3)nc(N3CCCCC3)c12 |  | 41.8 µM | 37.9 µM | 37.9 µM | 45.8 µM | 45.7 µM | 35.9 µM | 40.4 µM | 35 µM | 40.5 µM |  |  |  |  |  |  |  |  |  | 
O=C1CS(=O)(=O)C(c2cccc(Oc3ccccc3)c2)N1c1cccc(Cl)c1Cl (centres undefined) |  | 59.5 µM | 58.9 µM | > 100 µM | > 100 µM | > 100 µM | > 100 µM | 21.2 µM | > 100 µM | 67.3 µM |  |  |  |  |  |  |  |  |  | 
OC1C=C2C3CN(Cc4cc5c(cc43)OCO5)[C@H]2C[C@@H]1O (some centres undefined) | > 100 µM | > 100 µM | > 100 µM | 13.2 µM | > 100 µM | > 100 µM | 71.4 µM | 22.2 µM | > 100 µM | 39.3 µM |  |  |  |  |  |  |  |  |  | 
Cc1c2c(cc3c1[nH]c1ccccc13)C(c1ccc(F)cc1)=NCC2 | 3.73 µM | 4.91 µM | 5.34 µM | 2.45 µM | 4.74 µM | 4.45 µM | 4.08 µM | 7.78 µM | 5.46 µM |  |  |  |  |  |  |  |  |  |  | 
OC(c1ccc(-c2ccccc2)cc1)(c1ccc(-c2ccccc2)cc1)c1ccc(-c2ccccc2)cc1 | > 100 µM |  | > 100 µM | > 100 µM | > 100 µM | > 100 µM | > 100 µM | > 100 µM |  | > 100 µM |  |  |  |  |  |  |  |  |  | 
CO[C@@]12C[C@@H](CNC(=O)c3cc(Br)c[nH]3)O[C@@H]1NC(=O)N2 | > 100 µM | > 100 µM |  | > 100 µM | > 100 µM | > 100 µM | > 100 µM | > 100 µM | > 100 µM | > 100 µM |  |  |  |  |  |  |  |  |  | 
CCC(C)C(NC(=O)C(CCCCN)NC(=O)C(NC(=O)C(CCC(N)=O)NC(=O)C(CCCNC(=N)N)NC(C)=O)C(C)CC)C(=O)NC(Cc1c[nH]c2ccccc12)C(=O)NC(Cc1ccccc1)C(=O)NC(CCC(N)=O)C(=O)NC(CC(N)=O)C(=O)NC(CCCNC(=N)N)C(=O)NC(CCCNC(=N)N)C(=O)NC(CCSC)C(=O)NC(CCCCN)C(=O)NC(Cc1c[nH]c2ccccc12)C(=O)NC(CCCCN)C(=O)NC(CCCCN)C(N)=O (centres undefined) | > 50 µM | > 50 µM | > 50 µM | > 50 µM | > 50 µM | > 50 µM |  | > 50 µM | > 50 µM | > 50 µM |  |  |  |  |  |  |  |  |  | 
O=C(O)C(Cc1ccccc1)N1C(=O)c2ccccc2C1=O (centres undefined) | > 100 µM | > 100 µM | > 100 µM | > 100 µM | 30.4 µM | > 100 µM | > 100 µM | > 100 µM | 84.9 µM | > 100 µM |  |  |  |  |  |  |  |  |  | 
CC(=O)C1(c2ccccc2)CCCN(C)CC1 (centres undefined) | > 100 µM | > 100 µM | > 100 µM | > 100 µM | > 100 µM | > 100 µM | > 100 µM | > 100 µM | > 100 µM | > 100 µM |  |  |  |  |  |  |  |  |  | 
